The results in this text go back to ChEMBL document CHEMBL1149963, “Synthesis of a novel series of 3-oxo-2,4-dioxobicyclo[3.2.1]octanes: additional evidence for two thromboxane receptor subtypes” (Bioorg Med Chem Lett, 1994).

As a reminder, the EC50 is the concentration that produces a half-maximal response.

SMILES strings stand for the structures.

For test [1], the target named is T1, Thromboxane A2 receptor (Rattus norvegicus, UniProt P34978).
T1 sequence (P34978 whole entry): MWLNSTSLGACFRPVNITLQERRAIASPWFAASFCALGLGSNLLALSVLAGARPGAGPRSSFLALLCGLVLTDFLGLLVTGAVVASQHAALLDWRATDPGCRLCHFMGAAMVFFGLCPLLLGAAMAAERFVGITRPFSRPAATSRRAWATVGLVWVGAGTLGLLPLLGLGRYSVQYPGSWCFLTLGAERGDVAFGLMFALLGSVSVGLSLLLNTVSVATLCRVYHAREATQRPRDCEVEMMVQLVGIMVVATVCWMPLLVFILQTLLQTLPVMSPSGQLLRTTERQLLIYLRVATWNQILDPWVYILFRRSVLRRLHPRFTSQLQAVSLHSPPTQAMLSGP
Briefly: Activity against thromboxane A2 receptor evaluated by contraction of isolated rat thoracic aorta. It counts as tissue-based.

Test [2] addresses T2, Thromboxane A2 receptor (Homo sapiens, UniProt P21731).
T2 sequence (P21731 whole entry): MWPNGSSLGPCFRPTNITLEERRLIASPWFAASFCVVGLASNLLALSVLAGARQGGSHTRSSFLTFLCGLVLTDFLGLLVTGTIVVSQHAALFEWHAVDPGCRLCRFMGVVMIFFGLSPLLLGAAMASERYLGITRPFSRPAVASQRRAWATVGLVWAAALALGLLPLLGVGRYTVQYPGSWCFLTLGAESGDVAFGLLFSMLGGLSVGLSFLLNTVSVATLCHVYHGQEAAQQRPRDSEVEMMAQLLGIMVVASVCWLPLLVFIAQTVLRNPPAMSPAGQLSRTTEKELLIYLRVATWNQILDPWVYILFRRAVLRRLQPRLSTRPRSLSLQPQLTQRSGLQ
The experiment in a line: Activity against thromboxane A2 receptor evaluated by aggregation of human platelets at 0-10 uM; Not active.

Take `CCCCCC(O)/C=C/[C@@H]1[C@@H](C/C=C\CCCC(=O)O)[C@@H]2C[C@H]1OC(=O)O2` (stereo partly specified): a half-maximal response on Thromboxane A2 receptor [1] (EC50) required 0.23 nM.

As to `CCCCCC(O)/C=C/[C@@H]1[C@@H](C/C=C\CCCCO)[C@@H]2C[C@H]1OC(=O)O2` (stereo partly specified), the EC50 entry at Thromboxane A2 receptor [2] was “Not Active”; on Thromboxane A2 receptor [1] it was 1 nM.

With `CCCCCC(O)/C=C/[C@@H]1[C@@H](C/C=C\CCCC(=O)NC(C)C)[C@@H]2C[C@H]1OC(=O)O2` (stereo partly specified), the EC50 entry on Thromboxane A2 receptor [2] was “Not Active”; at Thromboxane A2 receptor [1] it was 324 nM.

Turning to `CCCCCC(O)/C=C/[C@@H]1[C@@H](C/C=C\CCCC(N)=O)[C@@H]2C[C@H]1OC(=O)O2` (stereo partly specified), on Thromboxane A2 receptor [1], the midpoint of the response, the EC50, lay at 58 nM.
